Source: publication PMC7971076 (Bioorganic & medicinal chemistry letters, 2015)

How the values were obtained:
[1] = test system: diheteromeric NMDA receptors (GluN1 with GluN2A–D); test: Two electrode voltage clamp, statements across the diheteromeric NMDA receptors; assay type: cell-based, rat; details: for decrease in potency: relative to parent analogues (1/14)
[2] = biological target: GluN1/GluN2D NMDA receptor (Rattus norvegicus, UniProt P35439+Q62645); assay type: cell-based; details: compared to screening hit 1
[3] = Stability of enantiomers separated by chiral semi-preparative HPLC; assay type: physicochemical; details: after chiral semi-preparative HPLC
[4] = test system: cultured primary hippocampal neurons; test: Neuroprotection against NMDA-induced excitotoxicity, LDH release; assay type: cell-based; details: 100 µM NMDA plus 30 µM glycine 1 h; LDH 20–24 h after; 30 µM 4, 10 µM (+)MK-801
[5] = biological target: GluN1/GluN2C NMDA receptor (Rattus norvegicus, UniProt P35439+Q00961); assay type: cell-based; details: 3 µM compound, absence of Mg2+, n = 5
GluN1/GluN2C NMDA receptor, sequence (Q00961 20-1237, other chains not shown): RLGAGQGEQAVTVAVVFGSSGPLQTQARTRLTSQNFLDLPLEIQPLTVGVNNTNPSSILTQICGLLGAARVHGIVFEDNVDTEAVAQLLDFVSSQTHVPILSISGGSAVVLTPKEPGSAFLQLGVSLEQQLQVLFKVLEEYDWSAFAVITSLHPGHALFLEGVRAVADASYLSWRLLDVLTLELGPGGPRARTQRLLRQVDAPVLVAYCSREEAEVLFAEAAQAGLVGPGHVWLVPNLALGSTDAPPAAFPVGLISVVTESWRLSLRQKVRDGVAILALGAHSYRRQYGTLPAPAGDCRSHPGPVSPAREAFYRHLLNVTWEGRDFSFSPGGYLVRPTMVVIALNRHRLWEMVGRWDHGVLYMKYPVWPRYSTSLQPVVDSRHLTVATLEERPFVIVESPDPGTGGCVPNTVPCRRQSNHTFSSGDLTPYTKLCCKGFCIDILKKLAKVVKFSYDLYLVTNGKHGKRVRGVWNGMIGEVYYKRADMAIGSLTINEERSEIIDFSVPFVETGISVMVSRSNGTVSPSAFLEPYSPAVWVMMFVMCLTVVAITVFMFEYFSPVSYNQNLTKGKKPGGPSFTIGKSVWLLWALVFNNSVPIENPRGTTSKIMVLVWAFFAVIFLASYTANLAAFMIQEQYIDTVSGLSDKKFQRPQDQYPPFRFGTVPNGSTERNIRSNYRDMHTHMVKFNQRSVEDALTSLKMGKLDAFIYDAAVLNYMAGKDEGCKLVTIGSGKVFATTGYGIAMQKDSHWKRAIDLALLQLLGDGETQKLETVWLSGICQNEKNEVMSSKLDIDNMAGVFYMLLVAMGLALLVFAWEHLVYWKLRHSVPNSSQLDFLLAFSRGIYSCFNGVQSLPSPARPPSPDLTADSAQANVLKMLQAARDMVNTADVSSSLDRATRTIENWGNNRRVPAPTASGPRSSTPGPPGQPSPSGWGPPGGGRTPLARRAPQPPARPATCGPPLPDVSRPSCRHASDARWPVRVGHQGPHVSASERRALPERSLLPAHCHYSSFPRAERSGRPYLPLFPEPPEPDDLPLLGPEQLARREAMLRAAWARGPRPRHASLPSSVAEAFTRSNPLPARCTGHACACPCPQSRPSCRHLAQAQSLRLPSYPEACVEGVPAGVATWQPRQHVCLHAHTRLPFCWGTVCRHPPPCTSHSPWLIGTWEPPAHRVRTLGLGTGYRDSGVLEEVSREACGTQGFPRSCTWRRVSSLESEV

GluN1/GluN2D NMDA receptor, sequence (Q62645 28-1323, other chains not shown): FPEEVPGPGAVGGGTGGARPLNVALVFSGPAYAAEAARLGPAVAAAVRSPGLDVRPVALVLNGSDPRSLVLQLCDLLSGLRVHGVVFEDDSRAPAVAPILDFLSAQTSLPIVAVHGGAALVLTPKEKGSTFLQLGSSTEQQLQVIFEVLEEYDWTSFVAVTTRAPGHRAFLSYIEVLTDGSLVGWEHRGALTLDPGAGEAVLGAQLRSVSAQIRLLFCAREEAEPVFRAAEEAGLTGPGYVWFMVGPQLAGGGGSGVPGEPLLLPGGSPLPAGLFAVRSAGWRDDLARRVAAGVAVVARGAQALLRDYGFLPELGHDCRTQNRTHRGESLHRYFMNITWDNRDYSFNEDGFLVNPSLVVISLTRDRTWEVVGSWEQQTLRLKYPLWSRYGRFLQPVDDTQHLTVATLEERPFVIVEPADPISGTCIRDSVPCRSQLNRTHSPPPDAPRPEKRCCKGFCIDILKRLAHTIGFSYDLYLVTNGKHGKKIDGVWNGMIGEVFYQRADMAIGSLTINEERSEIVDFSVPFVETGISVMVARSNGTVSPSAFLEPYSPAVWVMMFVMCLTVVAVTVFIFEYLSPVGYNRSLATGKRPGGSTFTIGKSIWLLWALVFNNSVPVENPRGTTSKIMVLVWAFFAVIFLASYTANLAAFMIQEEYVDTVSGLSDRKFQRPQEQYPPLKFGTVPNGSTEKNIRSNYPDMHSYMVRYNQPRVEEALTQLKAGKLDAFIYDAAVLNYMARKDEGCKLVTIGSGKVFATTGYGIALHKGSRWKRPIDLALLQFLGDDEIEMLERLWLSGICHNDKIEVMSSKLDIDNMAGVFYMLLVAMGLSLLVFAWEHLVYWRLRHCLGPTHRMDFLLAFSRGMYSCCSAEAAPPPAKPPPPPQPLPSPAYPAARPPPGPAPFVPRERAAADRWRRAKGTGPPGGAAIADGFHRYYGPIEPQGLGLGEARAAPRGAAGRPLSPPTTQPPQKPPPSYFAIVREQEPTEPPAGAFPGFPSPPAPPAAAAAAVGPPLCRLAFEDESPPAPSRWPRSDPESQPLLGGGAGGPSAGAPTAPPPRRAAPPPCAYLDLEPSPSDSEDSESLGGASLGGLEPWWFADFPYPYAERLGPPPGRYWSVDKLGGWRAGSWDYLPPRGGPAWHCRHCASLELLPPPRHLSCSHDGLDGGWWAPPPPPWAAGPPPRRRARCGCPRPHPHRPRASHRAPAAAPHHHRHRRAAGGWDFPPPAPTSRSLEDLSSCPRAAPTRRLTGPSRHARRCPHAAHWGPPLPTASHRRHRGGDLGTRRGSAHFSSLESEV

CCOC(=O)c1c(NC(=O)CC2NC(=O)NC2=O)sc2c1CCCC2 (centres unmarked) [Compound 27]
activity at NMDA receptor subtypes [1]: abrogated activity

COC(=O)c1c(NC(=O)CC2SC(N)=NC2=O)sc2c1CCCC2 (centres unmarked) [Compound 20]
increase in potency at GluN2D-containing receptors [2]: 2 fold

CCOC(=O)c1c(NC(=O)CC2SC(=N)NC2=O)sc2c1CCC(F)(F)C2 (centres unmarked) [Compound 11]
racemization of separated enantiomers [3]: prone to rapid racemization

COC(=O)c1ccsc1NC(=O)CC1SC(=N)NC1=O (centres unmarked) [Compound 19]
decrease in potency [1]: over 10 fold

CCOC(=O)c1c(NC(=O)CC2SC(=O)NC2=O)sc2c1CCC2 (centres unmarked) [Compound 24]
activity at NMDA receptor subtypes [1]: abolished activity

N=C1NC(=O)C(CC(=O)Nc2sc3c(c2C(=O)O)CCCC3)S1 (centres unmarked) [Compound 13]
activity at NMDA receptor subtypes [1]: loss of activity

CCOC(=O)c1c(NC(=O)CC2SC(N)=NC2=O)sc2c1CCC(C)C2 (centres unmarked) [Compound 4]
NMDA/glycine-induced cell death (supernatant LDH) [4]: reduced significantly
improved activity compared to unsubstituted counterpart 5 [1]: ~ 2 fold
mechanism: inhibition with 10-fold increase in glutamate (1000 µM) or glycine (300 µM) ([1]; 5 µM compound): could not be surmounted
inhibition at saturating concentrations against all GluN2 subunits ([1]; separate experiments, n = 4–6): 73–81%
degree of inhibition at membrane potentials between ‒60 and +60 mV [5]: the same at all voltages tested

CCOC(=O)c1cc(C)sc1NC(=O)CC1SC(=N)NC1=O (centres unmarked) [Compound 15]
decrease in potency [1]: > 4 fold

COC(=O)c1c(NC(=O)CC2SC(N)=NC2=O)sc2c1CCC(C)C2 (centres unmarked) [Compound 22]
IC50 values for all NMDA receptor subunits [1]: submicromolar

CCOC(=O)c1c(NC(=O)CC2SC(=N)NC2=O)sc2c1CCCC2 (centres unmarked) [Compound 5]
increase in potency at GluN2D-containing receptors [2]: 3 fold

N#Cc1c(NC(=O)CC2SC(=N)NC2=O)sc2c1CCCC2 (centres unmarked) [Compound 21]
maximal inhibition [1]: 60%

CCOC(=O)c1c(NC(=O)CC2SC(=O)NC2=O)sc2c1CCCC2 (centres unmarked) [Compound 25]
activity at NMDA receptor subtypes [1]: abolished activity

C[C@]12N[C@H](Cc3ccccc31)c1ccccc12 [(+)MK-801, reference compound]
NMDA/glycine-induced cell death (supernatant LDH) [4]: able to attenuate
